Results: US20210138025A1, “CATIONIC PEPTIDES WITH IMMUNOMODULATORY AND/OR ANTI-BIOFILM ACTIVITIES” (priority 2018, published 2021)
Like-named read-outs stand apart in the source and are kept apart here. No end group written: not given here.

Legend:
IL-1β = experiment: Suppression of LPS-induced IL-1β production in human PBMCs, ELISA (Tables 6, 7; FIGS. 6-9, 13); settings: SPOT synthesized control peptides, determined as in Table 6; Table 7
S. aureus (MRSA SAP0017) = assay type: cell-based, Staphylococcus aureus; settings: SPOT synthesized control peptides, determined as in Table 5; Table 7
Method in brief: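 Static biofilm assay: 1/100 dilutions of overnight cultures grown with peptide at varying concentrations, added at time zero, in BM2 biofilm medium or tryptic soy broth plus 1% glucose in polypropylene plates. After 22-46 h, adherent biofilm stained with crystal violet and absorbance read at 595 nm.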

MCP-1 = MCP-1 chemokine induction in human PBMCs, ELISA (Tables 6, 7; FIGS. 6-9, 13); assay type: cell-based; settings: SPOT synthesized control peptides, determined as in Table 6; Table 7
Procedure: Venous blood (20 ml) from healthy volunteers was collected in Vacutainer® collection tubes containing sodium heparin as an anticoagulant (Becton Dickinson, Mississauga, ON) in accordance with UBC ethical approval and guidelines. Blood was diluted 1:1 with complete RPMI 1640 medium and separated by centrifugation over a Ficoll-Paque® Plus (Amersham Biosciences, Piscataway, N.J., USA) density gradient. White blood cells were isolated from the buffy coat, washed twice in PBS and then resuspended in RPMI 1640 complete medium (containing 10% fetal bovine serum), and the number of peripheral blood mononuclear cells (PBMC) was determined by Trypan blue exclusion. PBMCs (5×10^5) were seeded into 12-well tissue culture dishes (Falcon; Becton Dickinson) at 0.75-1×10^6 cells/ml at 37° C. in 5% CO2. The above conditions were chosen to mimic conditions for circulating blood monocytes entering tissues at the site of infection via extravasation.
Following incubation of the cells under various treatment regimens, the tissue culture supernatants were centrifuged at 1000×g for 5 min, then at 10,000×g for 2 min to obtain cell-free samples. Supernatants were aliquoted and then stored at −20° C. prior to assay for various chemokines by capture ELISA (eBioscience and BioSource International Inc., CA, USA respectively)

[1] = test system: planktonic methicillin resistant S. aureus; experiment: microbe, parasite or virus in culture; assay type: cell-based, Staphylococcus aureus
S. aureus (Sau) [2] = assay type: cell-based
Procedure: (§1) The same strains as in Table 18 were assessed for Minimal Biofilm Inhibitory Concentrations (MBIC) (Table 19). Italics=excellent activity (less than or equal to 4 μg/ml). ND=Not determined. Peptides 3013, 3015 and 3016 inhibited biofilm growth in the largest number of bacterial strains (5, 5 and 6 out of 13 strains, respectively).
(§2) In addition, several peptides expressed preferential activity vs. biofilms (MBIC) cf. planktonic cells (MIC) (Table 20).

E. coli (Ec) [3] = assay type: cell-based
Procedure: as §1, §2

E. coli (Ec) [4] = assay type: cell-based; remark: listed apart in the source
S. aureus (Sau) [5] = assay type: cell-based; remark: listed apart in the source
PBMCs = experiment: Cytotoxicity towards PBMCs, lactate dehydrogenase (LDH) release assay (Tables 6, 7); settings: SPOT synthesized peptide ~25 μM, PBMCs from 3 human donors; Table 6
[6] = planktonic methicillin resistant
[7] = planktonic methicillin resistant S. aureus, broth microdilution in Mueller Hinton Broth (MHB), mean of three biological replicates
[8] = planktonic methicillin resistant S. aureus, broth microdilution in Tryptic Soy Broth (TSB) supplemented with 1% glucose, mean of three biological replicates

Substance | Fold Change in IL1-β relative to untreated LPS-stimulated cells (IL-1β) | % Biofilm Inhibition (S. aureus (MRSA SAP0017)) | MCPI production in PBMC (MCP-1) | % Toxicity (LDH Release) (PBMCs) | further results
C33 (KIWLLKLRQRQK) [Peptide C33] | 1.23 | 102% | 1685 pg/mL | – | –
C34 (WRIKKQWIQIIV) [Peptide C34] | 1.13 | 99% | 217 pg/mL | – | –
C35 (IILKRVQVQKIK) [Peptide C35] | 1.1 | 101% | 481 pg/mL | – | –
C36 (KRIKKLLKVVLK) [Peptide C36] | 0.92 | 100% | 719 pg/mL | – | –
C37 (QQKVIRLLWKAK) [Peptide C37] | 0.83 | 102% | 216 pg/mL | – | –
C38 (RIWRRAWKARWK) [Peptide C38] | 1.06 | 102% | 251 pg/mL | – | –
C39 (KIKLIQKQLRIK) [Peptide C39] | 0.84 | 98% | 286 pg/mL | – | –
C40 (ALLAGRKRAVAV) [Peptide C40] | 0.89 | 102% | 39 pg/mL | – | –
C41 (KAVAGARQRWAL) [Peptide C41] | 0.82 | 101% | 353 pg/mL | – | –
C42 (AIGAARAWRQWA) [Peptide C42] | 0.85 | 102% | 114 pg/mL | – | –
C43 (AVIVRAAKGGAR) [Peptide C43] | 0.99 | 103% | 100 pg/mL | – | –
C44 (LLKLKQKGIVIA) [Peptide C44] | 0.94 | 102% | 365 pg/mL | – | –
C45 (QWLVKWVIIKVV) [Peptide C45] | 1 | 102% | 499 pg/mL | – | –
C46 (IQIWIIRVIWRW) [Peptide C46] | 0.91 | 102% | 697 pg/mL | – | –
C47 (KVIQWIIVRRVL) [Peptide C47] | 0.76 | 102% | 1193 pg/mL | – | –
C48 (KVIKIVLVRVVK) [Peptide C48] | 1.07 | 99% | 1752 pg/mL | – | –
C49 (WLKRIVKVVVLK) [Peptide C49] | 0.8 | 103% | 1557 pg/mL | – | –
C50 (IKIVRRAKIIIW) [Peptide C50] | 0.91 | 94% | 222 pg/mL | – | –

Substance | Fold Change in IL1-β relative to untreated LPS-stimulated cells (IL-1β) | % Biofilm Inhibition (S. aureus (MRSA SAP0017)) | MCPI production in PBMC (MCP-1) | % Toxicity (LDH Release) (PBMCs) | further results
C51 (VKWKGKVIVVQL) [Peptide C51] | 0.81 | 79% | 862 pg/mL | – | –
C52 (KIVQKKLRLVVI) [Peptide C52] | 0.76 | 99% | 291 pg/mL | – | –
C53 (GKLKIKVKLGIA) [Peptide C53] | 0.94 | 98% | 113 pg/mL | – | –
C54 (QVVVKKKAIQVV) [Peptide C54] | 0.95 | 101% | 651 pg/mL | – | –
C55 (VAKVKKARWRLR) [Peptide C55] | 0.92 | 102% | 208 pg/mL | – | –
C56 (IIKWIVVRQIRK) [Peptide C56] | 0.85 | 102% | 57 pg/mL | – | –
C57 (KGKIRKIVLIRR) [Peptide C57] | 0.9 | 102% | 157 pg/mL | – | –
IAWQLLWGWRVR-NH2 [Peptide 3022, IAWQLLWGWRVR] | – | – | – | −4.8% | MIC (μM) MHB [1, 6]: 4 µM; MIC (μM) TSB with 1% Glucose [1, 6]: 8 µM; MBIC S. aureus (S. aureus (Sau) [2]; Sau): 4 µg/mL; MBIC E. coli (E. coli (Ec) [3]; Ec): 4 µg/mL; MIC E. coli (E. coli (Ec) [4]; Ec): 8 µg/mL; MIC S. aureus (S. aureus (Sau) [5]; Sau): 8 µg/mL
IKIIWKALGQVI-NH2 [Peptide 3024, IKIIWKALGQVI] | – | – | – | −1.7% | MIC (μM) MHB [1, 7]: 16 µM; MIC (μM) TSB with 1% Glucose [1, 8]: 32 µM; MBIC S. aureus (S. aureus (Sau) [2]; Sau): 8 µg/mL; MBIC E. coli (E. coli (Ec) [3]; Ec): 2 µg/mL; MIC E. coli (E. coli (Ec) [4]; Ec): 4 µg/mL; MIC S. aureus (S. aureus (Sau) [5]; Sau): 16 µg/mL
ILVRWIRWRIQW-NH2 [Peptide 3002, ILVRWIRWRIQW] | – | – | – | −3.7% | MIC (μM) MHB [1, 6]: 2 µM; MIC (μM) TSB with 1% Glucose [1, 6]: 4 µM; MBIC S. aureus (S. aureus (Sau) [2]; Sau): 4 µg/mL; MBIC E. coli (E. coli (Ec) [3]; Ec): 4 µg/mL; MIC E. coli (E. coli (Ec) [4]; Ec): 8 µg/mL; MIC S. aureus (S. aureus (Sau) [5]; Sau): 8 µg/mL
IQRWWKVWLKVI-NH2 [Peptide 3004, IQRWWKVWLKVI] | – | – | – | 5.1% | MIC (μM) MHB [1, 6]: 4 µM; MIC (μM) TSB with 1% Glucose [1, 6]: 16 µM; MBIC S. aureus (S. aureus (Sau) [2]; Sau): 1 µg/mL; MBIC E. coli (E. coli (Ec) [3]; Ec): 2 µg/mL; MIC E. coli (E. coli (Ec) [4]; Ec): 4 µg/mL; MIC S. aureus (S. aureus (Sau) [5]; Sau): 8 µg/mL
IWLRLKVVLKRK-NH2 [Peptide 3006, IWLRLKVVLKRK] | – | – | – | 2.4% | MIC (μM) MHB [1, 7]: 4 µM; MIC (μM) TSB with 1% Glucose [1, 8]: 32 µM; MBIC S. aureus (S. aureus (Sau) [2]; biofilms, Table 20): 1 µg/mL; MBIC E. coli (E. coli (Ec) [3]; biofilms, Table 20): 1 µg/mL; MIC E. coli (E. coli (Ec) [4]; planktonic cells, Table 20): 2 µg/mL; MIC S. aureus (S. aureus (Sau) [5]; planktonic cells, Table 20): 8 µg/mL
KIQRRAWKQWRK-NH2 [Peptide 3014, KIQRRAWKQWRK] | – | – | – | −3.7% | MIC (μM) MHB [1, 6]: >64 µM; MIC (μM) TSB with 1% Glucose [1, 6]: >64 µM; MBIC S. aureus (S. aureus (Sau) [2]; Sau): 64 µg/mL; MBIC E. coli (E. coli (Ec) [3]; Ec): 64 µg/mL; MIC E. coli (E. coli (Ec) [4]; Ec): 64 µg/mL; MIC S. aureus (S. aureus (Sau) [5]; Sau): >64 µg/mL
KKWQLLIKWKLR-NH2 [Peptide 3008, KKWQLLIKWKLR] | – | – | – | 18.8% | MIC (μM) MHB [1, 6]: 2 µM; MIC (μM) TSB with 1% Glucose [1, 6]: 4 µM; MBIC S. aureus (S. aureus (Sau) [2]; Sau): 2 µg/mL; MBIC E. coli (E. coli (Ec) [3]; Ec): 4 µg/mL; MIC E. coli (E. coli (Ec) [4]; Ec): 8 µg/mL; MIC S. aureus (S. aureus (Sau) [5]; Sau): 8 µg/mL
LIVIQLLKKWWK-NH2 [Peptide 3020, LIVIQLLKKWWK] | – | – | – | 10.2% | MIC (μM) MHB [1, 6]: 8 µM; MIC (μM) TSB with 1% Glucose [1, 6]: >64 µM; MBIC S. aureus (S. aureus (Sau) [2]; Sau): <1 µg/mL; MBIC E. coli (E. coli (Ec) [3]; Ec): 1 µg/mL; MIC E. coli (E. coli (Ec) [4]; Ec): 2 µg/mL; MIC S. aureus (S. aureus (Sau) [5]; Sau): 16 µg/mL
RRIIKILLWKLR-NH2 [Peptide 3021, RRIIKILLWKLR] | – | – | – | 13.1% | MIC (μM) MHB [1, 6]: 4 µM; MIC (μM) TSB with 1% Glucose [1, 6]: 32 µM; MBIC S. aureus (S. aureus (Sau) [2]; Sau): 1 µg/mL; MBIC E. coli (E. coli (Ec) [3]; Ec): 2 µg/mL; MIC E. coli (E. coli (Ec) [4]; Ec): <1 µg/mL; MIC S. aureus (S. aureus (Sau) [5]; Sau): 8 µg/mL
RRQWRGWVRIWL-NH2 [Peptide 3005, RRQWRGWVRIWL] | – | – | – | −4.2% | MIC (μM) MHB [1, 6]: 4 µM; MIC (μM) TSB with 1% Glucose [1, 6]: 64 µM; MBIC S. aureus (S. aureus (Sau) [2]; Sau): 1 µg/mL; MBIC E. coli (E. coli (Ec) [3]; Ec): 2 µg/mL; MIC E. coli (E. coli (Ec) [4]; Ec): 4 µg/mL; MIC S. aureus (S. aureus (Sau) [5]; Sau): 8 µg/mL
RVKAIKWRKIVV-NH2 [Peptide 3012, RVKAIKWRKIVV] | – | – | – | 2.8% | MIC (μM) MHB [1, 6]: >64 µM; MIC (μM) TSB with 1% Glucose [1, 6]: >64 µM; MBIC S. aureus (S. aureus (Sau) [2]; Sau): 8 µg/mL; MBIC E. coli (E. coli (Ec) [3]; Ec): 32 µg/mL; MIC E. coli (E. coli (Ec) [4]; Ec): 64 µg/mL; MIC S. aureus (S. aureus (Sau) [5]; Sau): >64 µg/mL
